Data taken from patent US9920010B2, “CXCR7 receptor modulators” (IDORSIA PHARMACEUTICALS LTD, priority 2013, dated 2018).

Each compound was assayed against T1, CXCR7 (Homo sapiens, UniProt P25106) (assay: PathHunter CHO-K1 CXCR7 b-arrestin recruitment assay (CXCR7 agonistic activity)). Conditions: PathHunter CHO-K1 CXCR7 b-arrestin cell line.
T1 construct: host or cells: CHO-K1 (PathHunter CHO-K1 CXCR7 b-arrestin cell line, stably transfected)
Assay type: cell-based
How it was run: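 Stable CHO-K1 line with C-terminally ProLink-tagged CXCR7 and β-arrestin 2–EA fusion; β-arrestin recruitment restores β-gal activity, read by chemiluminescence after 1 h RT detection. Cells seeded 24 h, starved in OPTIMEM 3–4 h, exposed to compounds 90 min at 37 °C in HBSS/HEPES/BSA. Geometric-mean EC50 from repeated measurements.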

T1 sequence (P25106 whole entry): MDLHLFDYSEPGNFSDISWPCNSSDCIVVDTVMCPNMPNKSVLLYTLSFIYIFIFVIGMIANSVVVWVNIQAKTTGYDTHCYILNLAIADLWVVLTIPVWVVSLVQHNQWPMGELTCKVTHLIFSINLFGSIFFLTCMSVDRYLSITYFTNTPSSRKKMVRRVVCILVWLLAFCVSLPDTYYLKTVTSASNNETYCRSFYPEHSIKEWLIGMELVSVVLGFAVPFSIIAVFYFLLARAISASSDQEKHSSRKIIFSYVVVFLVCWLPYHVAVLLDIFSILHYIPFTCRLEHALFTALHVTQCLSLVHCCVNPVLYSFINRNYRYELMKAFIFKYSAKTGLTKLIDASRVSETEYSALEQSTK
T1 sequence (P32121 whole entry partner): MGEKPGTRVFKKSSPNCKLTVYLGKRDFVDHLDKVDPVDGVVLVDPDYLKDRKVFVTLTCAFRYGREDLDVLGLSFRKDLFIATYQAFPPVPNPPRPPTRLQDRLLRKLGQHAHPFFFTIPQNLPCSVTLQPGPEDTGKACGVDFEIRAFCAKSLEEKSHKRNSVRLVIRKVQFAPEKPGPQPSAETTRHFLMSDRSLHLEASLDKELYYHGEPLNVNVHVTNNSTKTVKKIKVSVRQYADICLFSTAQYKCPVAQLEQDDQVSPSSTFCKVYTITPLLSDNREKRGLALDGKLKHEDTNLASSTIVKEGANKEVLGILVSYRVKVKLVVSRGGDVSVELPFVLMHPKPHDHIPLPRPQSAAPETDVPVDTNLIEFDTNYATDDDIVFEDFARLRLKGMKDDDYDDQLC

SMILES	EC50
CN(C)CCN(Cc1ccccc1C(F)(F)F)C(=O)CNc1cccc2c1CCN(c1nc(C(F)(F)F)cs1)C2 [Example 376, N-(2-Dimethylamino-ethyl)-N-(2-trifluoromethyl-benzyl)-2-[2-(4-trifluoromethyl-thiazol-2-yl)-1,2,3,4-tetrahydro-isoquinolin-5-ylamino]-acetamide]	27 nM
CCN1CCc2cccc(NCC(=O)N(CCN(C)C)Cc3c(F)cccc3F)c2C1 [compound 524, N-(2,6-Difluoro-benzyl)-N-(2-dimethylamino-ethyl)-2-(2-ethyl-1,2,3,4-tetrahydro-isoquinolin-8-ylamino)-acetamide]	27 nM
CN(C)CCN(Cc1ccccc1)C(=O)CNc1cccc2c1CCN(Cc1ccccc1)C2 [compound 123]	120 nM
CC(C)(O)CN(Cc1ncccc1Br)C(=O)CNc1cccc2c1CN(C1CCC1)CC2 [compound 458]	109 nM
CCN(Cc1ccccc1Cl)C(=O)CNc1cccc2c1CCN(CC1CC1)C2 [Example 66, N-(2-Chloro-benzyl)-2-(2-cyclopropylmethyl-1,2,3,4-tetrahydro-isoquinolin-5-ylamino)-N-ethyl-acetamide]	168 nM
CCN1CCc2c(cccc2OCC(=O)N(CCN(C)C)Cc2ccccc2Cl)C1 [compound 171, N-(2-Chloro-benzyl)-N-(2-dimethylamino-ethyl)-2-(2-ethyl-1,2,3,4-tetrahydro-isoquinolin-5-yloxy)-acetamide]	18 nM
CCC(=O)N1CCc2c(cccc2OCC(=O)N(CCN(C)C)Cc2ccccc2)C1 [compound 169, N-Benzyl-N-(2-dimethylamino-ethyl)-2-(2-propionyl-1,2,3,4-tetrahydro-isoquinolin-5-yloxy)-acetamide]	42 nM
COCCN(Cc1ccccc1C(F)(F)F)C(=O)CNc1cccc2c1CCN(CC1CC1)C2 [Example 225, 2-(2-Cyclopropylmethyl-1,2,3,4-tetrahydro-isoquinolin-5-ylamino)-N-(2-methoxy-ethyl)-N-(2-trifluoromethyl-benzyl)-acetamide]	29 nM
CN(C)CCN(Cc1ncccc1C(F)(F)F)C(=O)CNc1cccc2c1CCN(C1CCC1)C2 [Example 366, 2-(2-Cyclobutyl-1,2,3,4-tetrahydro-isoquinolin-5-ylamino)-N-(2-dimethylamino-ethyl)-N-(3-trifluoromethyl-pyridin-2-ylmethyl)-acetamide]	2 nM
CC(C)(O)CN(Cc1ncccc1Br)C(=O)CNc1cccc2c1CN(CC1CC1)CC2 [compound 488]	91 nM
CN(C)CCN(Cc1ccccn1)C(=O)CNc1cccc2c1CCN(CC1CC1)C2 [Example 257, 2-(2-Cyclopropylmethyl-1,2,3,4-tetrahydro-isoquinolin-5-ylamino)-N-(2-dimethylamino-ethyl)-N-pyridin-2-ylmethyl-acetamide]	29 nM
CNCCN(Cc1ccccc1C(F)(F)F)C(=O)CNc1cccc2c1CCN(C(=O)OC)C2 [compound 394, 5-({[(2-Methylamino-ethyl)-(2-trifluoromethyl-benzyl)-carbamoyl]-methyl}-amino)-3,4-dihydro-1H-isoquinoline-2-carboxylic acid methyl ester]	9 nM
CN(C)CCN(Cc1ccccc1F)C(=O)CNc1cccc2c1CCN(CC1CC1)C2 [Example 38, 2-(2-Cyclopropylmethyl-1,2,3,4-tetrahydro-isoquinolin-5-ylamino)-N-(2-dimethylamino-ethyl)-N-(2-fluoro-benzyl)-acetamide]	3 nM
CC(C)(O)CN(Cc1ncccc1Br)C(=O)CNc1cccc2c1CN(C(=O)[C@H]1C[C@H]1F)CC2 (relative stereo) [compound 461]	420 nM

The remaining compounds from weak to strong by EC50, led by results:

EC50	SMILES
155 nM	CCN1CCc2cccc(NCC(=O)N(CCN(C)C)Cc3ccc(C(F)(F)F)cc3)c2C1 [compound 506]
140 nM	CCN1CCc2cccc(NCC(=O)N(CCN(C)C)C(C)c3ccccc3C(F)(F)F)c2C1 (racemic) [compound 522]
96 nM	COCCN1CCc2c(cccc2NCC(=O)N(CCN2CCC(F)(F)CC2)Cc2ncccc2C(F)(F)F)C1 [Example 300, N-[2-(4,4-Difluoro-piperidin-1-yl)-ethyl]-2-[2-(2-methoxy-ethyl)-1,2,3,4-tetrahydro-isoquinolin-5-ylamino]-N-(3-trifluoromethyl-pyridin-2-ylmethyl)-acetamide]
83 nM	CNCCN(Cc1ccccc1C(F)(F)F)C(=O)CNc1cccc2c1CCN(C(=O)C(C)(C)C)C2 [compound 390]
66 nM	NCCN(Cc1ccc(C(F)(F)F)cc1)C(=O)CNc1cccc2c1CCN(CC1CC1)C2 [Example 73, N-(2-Amino-ethyl)-2-(2-cyclopropylmethyl-1,2,3,4-tetrahydro-isoquinolin-5-ylamino)-N-(4-trifluoromethyl-benzyl)-acetamide]
48 nM	CN(C)CCN(Cc1ccccc1)C(=O)CNc1cccc2c1CN(Cc1ccccc1)CC2 [compound 193, N-Benzyl-2-(2-benzyl-1,2,3,4-tetrahydro-isoquinolin-8-ylamino)-N-(2-dimethylamino-ethyl)-acetamide]
39 nM	C=CCN1CCc2cccc(NCC(=O)N(CCN(C)CCF)Cc3ccccc3C(F)(F)F)c2C1 [compound 465, 2-(2-Allyl-1,2,3,4-tetrahydro-isoquinolin-8-ylamino)-N-{2-[(2-fluoro-ethyl)-methyl-amino]-ethyl}-N-(2-trifluoromethyl-benzyl)-acetamide]
32 nM	CN(C)CCN(Cc1ccccc1C(F)(F)F)C(=O)CNc1cccc2c1C(C)(C)CN(C(=O)OC(C)(C)C)C2 [Example 90, 5-({[(2-Dimethylamino-ethyl)-(2-trifluoromethyl-benzyl)-carbamoyl]-methyl}-amino)-4,4-dimethyl-3,4-dihydro-1H-isoquinoline-2-carboxylic acid tert-butyl ester]
17 nM	Cc1cccnc1CN(CCC(C)(C)C)C(=O)CNc1cccc2c1CCN(CC1CC1)C2 [Example 276, 2-(2-Cyclopropylmethyl-1,2,3,4-tetrahydro-isoquinolin-5-ylamino)-N-(3,3-dimethyl-butyl)-N-(3-methyl-pyridin-2-ylmethyl)-acetamide]
11 nM	O=C(CNc1cccc2c1CCN(CC1CC1)C2)N(CCN1CCCC(F)(F)C1)Cc1ncccc1C(F)(F)F [Example 283, 2-(2-Cyclopropylmethyl-1,2,3,4-tetrahydro-isoquinolin-5-ylamino)-N-[2-(3,3-difluoro-piperidin-1-yl)-ethyl]-N-(3-trifluoromethyl-pyridin-2-ylmethyl)-acetamide]
5 nM	CN(C)CCN(Cc1cccc(Br)c1)C(=O)CNc1cccc2c1CCN(CC1CC1)C2 [Example 237, N-(3-Bromo-benzyl)-2-(2-cyclopropylmethyl-1,2,3,4-tetrahydro-isoquinolin-5-ylamino)-N-(2-dimethylamino-ethyl)-acetamide]
4 nM	CCC(=O)N1CCc2c(cccc2NCC(=O)N(CCN(C)C)Cc2ccccc2C(F)(F)F)C1 [Example 35, N-(2-Dimethylamino-ethyl)-2-(2-propionyl-1,2,3,4-tetrahydro-isoquinolin-5-ylamino)-N-(2-trifluoromethyl-benzyl)-acetamide]
2 nM	CN1CCCC1CCN(Cc1ccccc1C(F)(F)F)C(=O)CNc1cccc2c1CCN(CC1CC1)C2 (stereo not drawn) [Example 213, 2-(2-Cyclopropylmethyl-1,2,3,4-tetrahydro-isoquinolin-5-ylamino)-N-[2-(1-methyl-pyrrolidin-2-yl)-ethyl]-N-(2-trifluoromethyl-benzyl)-acetamide]
